According to ChEMBL document CHEMBL1148263, “Solid-phase synthesis of kojic acid-tripeptides and their tyrosinase inhibitory activity, storage stability, and toxicity” (Bioorg Med Chem Lett, 2004):

Key:
Type in all cases: functional, Mus musculus
[1] = Cytotoxicity of compound against Melan-a cells determined as percent cell survival at 10 ppm
[2] = Cytotoxicity of compound against Melan-a cells determined as percent cell survival at 1 ppm
[3] = Cytotoxicity of compound against Melan-a cells determined as percent cell survival at 100 ppm

Structure (SMILES)	Cell survival [1]	Cell survival [2]	Cell survival [3]
NCCCC[C@H](NC(=O)OCc1cc(=O)c(O)co1)C(=O)N[C@@H](CCC(=O)O)C(=O)N[C@@H](Cc1ccc(O)cc1)C(=O)O	98.78%	98.38%	100.81%
O=C(N[C@@H](Cc1ccccc1)C(=O)N[C@@H](Cc1c[nH]c2ccccc12)C(=O)N[C@@H](Cc1ccc(O)cc1)C(=O)O)OCc1cc(=O)c(O)co1	128.73%	125.51%	128.08%
O=C(N[C@@H](Cc1ccccc1)C(=O)N[C@@H](Cc1ccc(O)cc1)C(=O)N[C@@H](Cc1ccc(O)cc1)C(=O)O)OCc1cc(=O)c(O)co1	128.62%	124.4%	124.4%
O=C(N[C@@H](Cc1ccccc1)C(=O)N[C@@H](Cc1ccccc1)C(=O)N[C@@H](Cc1ccc(O)cc1)C(=O)O)OCc1cc(=O)c(O)co1	94.66%	91.62%	104.36%
O=c1cc(CO)occ1O [KOJIC ACID]	92.36%	91.75%	86.92%
